Source: EP4512427A1, “ANTIBODY-DRUG CONJUGATES BASED ON MOLECULAR GLUE DEGRADERS AND USES THEREOF” (Mablink Bioscience, priority 2023, dated 2025)

Assays:
in vitro = settings: PAMPA, pH 7.4
Method: Stock solutions of compounds of the invention were prepared in dimethyl sulfoxide (DMSO) to a final concentration of 10 mM. Each stock solution was diluted to 50 µM in pH 7.4 Prisma HT buffer (pION) in the presence of 10% MeOH (v/v). 200 µL were added to each well of the donor plate in quintuplicate. […] The acceptor filter plate was carefully placed on top of the donor plate to form a "sandwich." The sandwich was incubated at 25°C for 5 h, at 300 rpm. UV-vis spectra of the solutions in the blank, reference, acceptor, and donor plates were measured using a Tecan Infinite 200 PRO M Nano Plus microplate reader.

MDR1 = target: T1, MDR1 (Homo sapiens, UniProt P08183); experiment: MDR1 efflux substrate assay in MDCK-MDR1; assay type: in vitro ADME; settings: for Papp A→B at 60 min, 5 µM / Papp B→A at 60 min, 5 µM / efflux ratio at 60 min, 5 µM: dog; for Papp A→B at 60 min, 5 µM / Papp B→A at 60 min, 5 µM: MDCK-MDR1, 5µM, pH 7.4; for Papp A→B at 60 min, 5 µM: read-out: Papp A (donor) to B (acceptor); for Papp B→A at 60 min, 5 µM: read-out: Papp B (acceptor) to A (donor); for efflux ratio at 60 min, 5 µM: MDCK-MDR1, pH 7.4, read-out: Efflux ratio B/A
T1 construct: host or cells: MDCK-MDR1 (Preadyport)
Method: (§1) MDR1 and BCRP efflux substrate assays were conducted in MDCK-MDR1 and MDCK-BCRP in vitro models (Preadyport™, Solvo Biotech) at Symeres (Nederland). Compound of the invention (donor well concentration of 5µM) were incubated in cell monolayer 24-transwell Preadyport system, using Preadyport recommended pH 7.4 assay buffer (donor and receiver wells). After 60 min of incubation (no shaking), samples are collected and suspended into triple volume of 66% cold acetonitrile. Samples are stored at -20°C until thawed, centrifuged and analyzed by LC-MS. Quinidine was used a positive control for the MDR1 assay, and prazosin was used as a positive control for the BCRP assay. Exatecan was used as a control, known not to be an MDR1 substrate. Residual DMSO content from compounds stock solutions was below 1% (v/v). The assay was performed in duplicate. The quantification of test compounds in donor or receptor compartment is conducted using relative LC/MS peak areas (samples of initial incubation solutions are used as a single point calibrator), without any spiked standard samples. The data is used for estimating apparent permeability (Papp) and calculation of efflux ratio.

NCI-N87 = experiment: In vitro cytotoxicity assay (MTT); assay type: cell-based, human; settings: Homo sapiens, NCI-N87, 144 h, 6 days incubation
Method: (§2) In vitro cytotoxicity of compounds of the disclosure was assessed on several cancerous human cell lines. Cells were plated in 96-well plates at an appropriate density depending on the cell line (between 1000 and 10 000 cells/well in 100µL of appropriate culture media) and incubated at 37°C for 24 hours. Serial dilutions of the tested compound previously dissolved in culture media (50µL) were added, and incubation was carried at 37°C out for 6 days. MTT (5mg/mL in PBS, 20µL, Sigma-Aldrich) was added into the wells, and incubation was continued for 1 to 4 hours at 37°C. Culture media was then carefully removed, and well content was homogeneously dissolved with acidified isopropanol. Absorbance values were measured on a microplate reader using a wavelength of 570 nm (with a reference wavelength of 690 nm). The IC50 concentration values compared to untreated control cells were determined using inhibition dose response curve fitting (GraphPad Prism 9). Exatecan mesylate (cat#HY-13631A) and CR8 (CAS# 294646-77-8; cat#HY-18340) were purchased from MedChemExpress (China).

BT-474 = experiment: In vitro cytotoxicity assay (MTT); assay type: cell-based, human; settings: Homo sapiens, BT-474, 144 h, BT-474; 6 days incubation, MTT
Method: as §2

MDA-MB-231 = experiment: In vitro cytotoxicity assay (MTT); assay type: cell-based, human; settings: Homo sapiens, MDA-MB-231, 144 h, 6 days incubation
Method: as §2

MDA-MB-453 = experiment: In vitro cytotoxicity assay (MTT); assay type: cell-based, human; settings: Homo sapiens, MDA-MB-453, 144 h, 6 days incubation
Method: as §2

SKBR-3 = experiment: In vitro cytotoxicity assay (MTT); assay type: cell-based, human; settings: Homo sapiens, SK-BR-3, 144 h, 6 days incubation
Method: as §2

BCRP = target: T2, BCRP (Homo sapiens, UniProt Q9UNQ0); experiment: BCRP efflux substrate assay in MDCK-BCRP; assay type: in vitro ADME; settings: for efflux ratio at 60 min, 5 µM / Papp A→B at 60 min, 5 µM / Papp B→A at 60 min, 5 µM: dog, pH 7.4, MDCK-BCRP; for efflux ratio at 60 min, 5 µM: read-out: Efflux ratio B/A; for Papp A→B at 60 min, 5 µM: read-out: Papp A (donor) to B (acceptor); for Papp B→A at 60 min, 5 µM: read-out: Papp B (acceptor) to A (donor)
T2 construct: host or cells: MDCK-BCRP (Preadyport)
T2 sequence (Q9UNQ0 1-655): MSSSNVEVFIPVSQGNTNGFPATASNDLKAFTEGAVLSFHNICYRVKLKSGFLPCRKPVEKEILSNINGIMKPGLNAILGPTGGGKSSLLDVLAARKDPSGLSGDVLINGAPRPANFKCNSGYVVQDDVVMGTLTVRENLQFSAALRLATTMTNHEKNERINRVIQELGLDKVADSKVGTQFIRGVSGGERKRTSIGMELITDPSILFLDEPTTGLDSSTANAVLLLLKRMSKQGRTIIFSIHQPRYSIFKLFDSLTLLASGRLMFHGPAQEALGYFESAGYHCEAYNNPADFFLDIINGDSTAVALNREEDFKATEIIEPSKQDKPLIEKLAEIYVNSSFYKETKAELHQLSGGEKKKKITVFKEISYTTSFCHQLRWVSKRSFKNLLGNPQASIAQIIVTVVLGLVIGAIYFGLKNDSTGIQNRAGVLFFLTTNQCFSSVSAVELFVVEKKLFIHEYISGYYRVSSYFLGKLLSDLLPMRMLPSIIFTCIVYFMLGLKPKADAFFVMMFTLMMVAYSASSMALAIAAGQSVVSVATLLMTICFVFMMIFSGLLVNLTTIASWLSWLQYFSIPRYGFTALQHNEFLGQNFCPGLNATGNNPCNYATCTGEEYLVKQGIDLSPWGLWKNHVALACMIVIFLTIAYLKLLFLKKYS
Method: as §1

JIMT-1 = experiment: In vitro cytotoxicity assay (MTT); assay type: cell-based, human; settings: Homo sapiens, 144 h, 6 days incubation
Method: as §2

MCF-7 = experiment: In vitro cytotoxicity assay (MTT); assay type: cell-based; settings: Homo sapiens, MCF7, 144 h, 6 days incubation
Method: as §2

HT-29 = experiment: In vitro cytotoxicity assay (MTT); assay type: cell-based; settings: Homo sapiens, 144 h, 6 days incubation
Method: as §2

BXPC3 = experiment: In vitro cytotoxicity assay (MTT); assay type: cell-based; settings: Homo sapiens, BXPC-3, 144 h, 6 days incubation
Method: as §2

KB-1 = experiment: In vitro cytotoxicity assay (MTT); assay type: cell-based; settings: Homo sapiens, KB16, 144 h, 6 days incubation
Method: as §2

T1 sequence (P08183 whole entry): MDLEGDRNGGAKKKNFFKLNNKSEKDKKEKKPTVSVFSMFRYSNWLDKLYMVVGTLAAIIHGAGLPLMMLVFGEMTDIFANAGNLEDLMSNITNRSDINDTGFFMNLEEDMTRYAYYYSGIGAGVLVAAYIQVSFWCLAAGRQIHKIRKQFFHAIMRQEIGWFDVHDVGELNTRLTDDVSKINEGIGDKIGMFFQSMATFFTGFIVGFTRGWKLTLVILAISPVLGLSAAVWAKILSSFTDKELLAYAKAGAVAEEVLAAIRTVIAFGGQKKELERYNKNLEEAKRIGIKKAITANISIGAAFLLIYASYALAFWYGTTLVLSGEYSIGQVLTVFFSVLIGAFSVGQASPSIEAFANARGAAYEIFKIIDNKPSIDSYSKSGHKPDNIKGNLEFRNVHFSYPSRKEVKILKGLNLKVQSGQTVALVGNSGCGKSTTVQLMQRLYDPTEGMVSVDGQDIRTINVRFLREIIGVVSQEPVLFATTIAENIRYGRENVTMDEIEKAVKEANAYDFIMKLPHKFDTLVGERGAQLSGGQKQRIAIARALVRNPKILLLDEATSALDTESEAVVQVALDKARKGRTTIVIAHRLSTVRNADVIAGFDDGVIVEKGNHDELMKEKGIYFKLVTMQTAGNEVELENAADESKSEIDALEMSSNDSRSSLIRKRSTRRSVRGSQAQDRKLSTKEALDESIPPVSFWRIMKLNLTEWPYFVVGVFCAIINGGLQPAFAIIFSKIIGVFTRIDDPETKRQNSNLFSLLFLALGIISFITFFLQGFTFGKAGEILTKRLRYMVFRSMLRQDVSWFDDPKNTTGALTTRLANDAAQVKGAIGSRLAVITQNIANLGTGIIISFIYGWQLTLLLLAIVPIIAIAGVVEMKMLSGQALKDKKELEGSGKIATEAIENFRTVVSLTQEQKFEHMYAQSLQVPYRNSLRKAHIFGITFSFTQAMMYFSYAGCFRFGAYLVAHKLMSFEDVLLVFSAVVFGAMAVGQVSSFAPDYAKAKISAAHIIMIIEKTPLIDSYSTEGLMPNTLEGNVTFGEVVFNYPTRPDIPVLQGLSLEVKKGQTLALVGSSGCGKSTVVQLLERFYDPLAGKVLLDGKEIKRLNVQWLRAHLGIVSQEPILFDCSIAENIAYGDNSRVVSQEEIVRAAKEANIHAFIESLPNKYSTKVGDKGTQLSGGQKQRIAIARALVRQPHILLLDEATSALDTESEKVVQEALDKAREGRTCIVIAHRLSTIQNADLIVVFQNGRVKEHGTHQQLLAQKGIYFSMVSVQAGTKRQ

| Structure (SMILES) | Papp at 5 h, 50 µM (in vitro) | Papp A→B at 60 min, 5 µM (MDR1) | Papp B→A at 60 min, 5 µM (MDR1) | IC50 (NCI-N87) | IC50 (BT-474) | IC50 (MDA-MB-231) | IC50 (MDA-MB-453) | IC50 (SKBR-3) | efflux ratio at 60 min, 5 µM (BCRP) | Papp A→B at 60 min, 5 µM (BCRP) | Papp B→A at 60 min, 5 µM (BCRP) | efflux ratio at 60 min, 5 µM (MDR1) | IC50 (JIMT-1) | IC50 (MCF-7) | IC50 (HT-29) | IC50 (BXPC3) | IC50 (KB-1) | MDR1 efflux potential (MDR1; in words) | BCRP efflux potential (BCRP; in words) |
| --- | --- | --- | --- | --- | --- | --- | --- | --- | --- | --- | --- | --- | --- | --- | --- | --- | --- | --- | --- |
| N[C@H]1CCC[C@@H](Nc2nc(NCc3ccc(-c4ccccn4)cc3)n3ncc(Br)c3n2)C1 [Compound 2670] | 132 ×10⁻⁶ cm/s | < 0.5 ×10⁻⁶ cm/s | 23.5 ×10⁻⁶ cm/s | 2.53 nM | 5.77 nM | 2.67 nM | 9.19 nM | 0.72 nM | 5.93 | 5.02 ×10⁻⁶ cm/s | 29.8 ×10⁻⁶ cm/s | – | – | – | – | – | – | – | – |
| Brc1cnn2c(NCc3ccc(-c4ccccn4)cc3)nc(NC[C@@H]3CCCN3)nc12 [Compound 2571] | 149 ×10⁻⁶ cm/s | 0.59 ×10⁻⁶ cm/s | 64.2 ×10⁻⁶ cm/s | 4.27 nM | 2.68 nM | 2.22 nM | 3.55 nM | 7.75 nM | 12.9 | 7.09 ×10⁻⁶ cm/s | 91.4 ×10⁻⁶ cm/s | 108 | 1.53 nM | 79.6 nM | 1.12 nM | 5.43 nM | – | – | – |
| NCC1CCN(c2nc(NCc3ccc(-c4ccccn4)cc3)n3ncc(Br)c3n2)CC1 [Compound 2560] | 135 ×10⁻⁶ cm/s | < 0.7 ×10⁻⁶ cm/s | 26.6 ×10⁻⁶ cm/s | 3.29 nM | 5.92 nM | 1.92 nM | 1.61 nM | 4.33 nM | 4.94 | 7.53 ×10⁻⁶ cm/s | 37.2 ×10⁻⁶ cm/s | – | 0.6 nM | – | – | – | – | – | – |
| NC[C@H]1CC[C@H](Nc2nc(NCc3ccc(-c4ccccn4)cc3)n3ncc(Br)c3n2)CC1 [Compound 2636] | 67 ×10⁻⁶ cm/s | < 12.9 ×10⁻⁶ cm/s | 30.8 ×10⁻⁶ cm/s | 2.46 nM | 3.68 nM | 1.46 nM | 1.97 nM | 0.17 nM | 6.21 | 3 ×10⁻⁶ cm/s | 18.6 ×10⁻⁶ cm/s | – | 0.12 nM | 33.1 nM | 1.28 nM | 4.68 nM | 8.1 nM | – | – |
| CNCCN(C)c1nc(NCc2ccc(-c3ccccn3)cc2)n2ncc(Br)c2n1 [Compound 2605] | 112 ×10⁻⁶ cm/s | 4.05 ×10⁻⁶ cm/s | 54.5 ×10⁻⁶ cm/s | 4.5 nM | 2.76 nM | 1.54 nM | 3.66 nM | 7.46 nM | 1.31 | 30.9 ×10⁻⁶ cm/s | 40.5 ×10⁻⁶ cm/s | 13.4 | 1.22 nM | 3.7 nM | 0.33 nM | 2.91 nM | – | low level | low level |
| CC[C@@]1(O)C(=O)OCc2c1cc1n(c2=O)Cc2c-1nc1cc(F)c(C)c3c1c2[C@@H](N)CC3 [Exatecan, reference compound] | 58 ×10⁻⁶ cm/s | 2.28 ×10⁻⁶ cm/s | 16.7 ×10⁻⁶ cm/s | – | – | – | – | – | 12.3 | 1.43 ×10⁻⁶ cm/s | 17.6 ×10⁻⁶ cm/s | 7.31 | – | – | – | – | – | – | – |
